Tests used:
Type in all cases: cell-based, human
COUP-TFII (NR2F2) = assay: qPCR of COUP-TFII after RA treatment; conditions: day 31 GFP+ CMs, RA-treated vs control differentiation
Method: (§1) In order to determine the dynamics of COUP-TF expression following RA treatment, expression levels of both COUP-TFI and II were analyzed by qPCR at different time points and compared to control EBs. COUP-TFs were induced within 24 h of treatment with RA followed by dramatic increase in expression thereafter. […] The expression of COUP-TFs was maintained in differentiated CMs at day 31. COUP-TFI was expressed 20-fold higher, and COUP-TFII was enriched over 30-fold in hESC-atrial CMs compared to hESC-ventricular CMs (Fig4A and B). Antibodies selectively binding to COUP-TFI or COUP-TFII were used to verify the expression of these proteins. […]
(§2) atRA (Sigma) was diluted in DMSO to make a solution of 50 mmol/L which was further diluted in distilled water to have a stock solution of 0.0001 mol/L. atRA was used in a final concentration of 1 µmol/L in BPEL medium to direct atrial […]
(§3) Gene expression was determined on the HumanHT-12 v4 Expression BeadChip at ServiceXS, Leiden, The Netherlands. […]
(§4) For assessing gene expression by qPCR, cDNA was synthesized from approximately 1µ g of RNA obtained from three independent differentiations (iScript cDNA Synthesis Kit, BIO-RAD). Target identification was performed using SYBR Green (Applied Biosystems, Life technologies) and detected by CFX96 Real-Time PCR system (Bio-Rad). […]

COUP-TFI (NR2F1) = assay: qPCR of COUP-TFI after RA treatment; conditions: day 31 GFP+ CMs, RA-treated vs control differentiation
Method: as §1, §2, §3, §4

differentiating hESCs = assay: AP characterization of CMs generated from RA-treated differentiations (patch-clamp)
Description: To study the electrical phenotype of CMs treated with RA during differentiation, we measured APs of dissociated single cells using the patch-clamp method (Fig3). Representative APs stimulated at 1 Hz are shown in Fig3B. The AP of a CM treated with RA during differentiation (RA) depicts an AP with a fast phase-1 repolarization and a plateau phase with a more negative potential compared to a control (CT) CM (Fig3B).
Spin EBs resulting from control and RA-treated differentiations were dissociated at day 17 to single cells using TrypLE™ Select (Life Technologies) and plated on gelatin-coated coverslips. Electrophysiological measurements were performed 10–14 days after dissociation from intrinsically quiescent single GFP^+ CMs that were able to contract upon field stimulation.
APs and membrane currents from hESC-CMs were recorded with the amphotericin-B-perforated patch-clamp technique at 36 ± 0.2°C using an Axopatch 200B amplifier (Molecular Devices, Sunnyvale, CA, USA). […] AP measurements were low-pass-filtered (cutoff frequency 10 kHz) and digitized at 40 kHz; membrane currents were measured at 1 and 4 kHz, respectively. Capacitance and series resistance were compensated by ≥ 80%, and APs were corrected for the calculated liquid junction potential (Barry & Lynch, [1991]). […]

Structure (SMILES): CC1=C(/C=C/C(C)=C/C=C/C(C)=C/C(=O)O)C(C)(C)CCC1 [RA, all-trans retinoic acid]
- COUP-TFII mRNA, hESC-atrial vs hESC-ventricular CMs (COUP-TFII (NR2F2)): over 30 fold
- COUP-TFI mRNA, hESC-atrial vs hESC-ventricular CMs (COUP-TFI (NR2F1)): 20 fold
- APAplat of individual cells (differentiating hESCs; RA group, 1 Hz, CT group > 80 mV): < 80 mV
- cells with atrial-like action potential properties (differentiating hESCs; RA treatment group, of 26 cells): about 85%

— publication PMC4403042, “Atrial-like cardiomyocytes from human pluripotent stem cells are a robust preclinical model for assessing atrial-selective pharmacology” (EMBO Molecular Medicine, 2015)
